Test results as given in PMC6158189, “A pharmacological probe identifies cystathionine β-synthase as a new negative regulator for ferroptosis” (Cell Death & Disease, 2018).
Values joined by “and” are separate entries in the source; they are usually repeats but may differ in a detail not shown here. Equal values may be shown once.

Tests used:
Format in all cases: biochemical
[1] = target: T1, hCBS S147A (Homo sapiens, UniProt P35520, S147A); assay: purified hCBS mutant enzyme assay
T1 construct: hCBS-413 (a C-terminal truncated hCBS 1–413); GST (N); made in house; host or cells: E. coli BL21
Experimental: (§1) The IC50 values of CH004 for hCBS-413, hCBS-413 mutants, hCBS-FL, hCSE or hDDC were determined according to the standard assay conditions otherwise indicated.
(§2) Table S2. Inhibitory effects of CH004 on hCBS WT and mutants.

[2] = target: T2, hCBS T146A (Homo sapiens, UniProt P35520, T146A); assay: purified hCBS mutant enzyme assay
T2 construct: hCBS-413 (a C-terminal truncated hCBS 1–413); GST (N); made in house; host or cells: E. coli BL21
Experimental: as §1, §2

[3] = target: T3, hCBS Y223F (Homo sapiens, UniProt P35520, Y223F); assay: purified hCBS mutant enzyme assay
T3 construct: hCBS-413 (a C-terminal truncated hCBS 1–413); GST (N); made in house; host or cells: E. coli BL21
Experimental: as §1, §2

[4] = target: T4, hCBS-FL (Homo sapiens, UniProt P35520); assay: CBS enzyme assay, H2S quantified by methylene blue method; set-up: human CBS or hCSE full-length (CBS-FL or CSE) was subcloned into pGEX-KG, pcDNA3 or pCDH vector; GST (N); made in house; host or cells: E. coli BL21; details: 150 nM hCBS-FL, 200 μM SAM, 4 mM L-Cys, 4 mM D,L-Hcys, Tris-HCl pH 8.6, 80 min
T4 sequence (P35520 1-551): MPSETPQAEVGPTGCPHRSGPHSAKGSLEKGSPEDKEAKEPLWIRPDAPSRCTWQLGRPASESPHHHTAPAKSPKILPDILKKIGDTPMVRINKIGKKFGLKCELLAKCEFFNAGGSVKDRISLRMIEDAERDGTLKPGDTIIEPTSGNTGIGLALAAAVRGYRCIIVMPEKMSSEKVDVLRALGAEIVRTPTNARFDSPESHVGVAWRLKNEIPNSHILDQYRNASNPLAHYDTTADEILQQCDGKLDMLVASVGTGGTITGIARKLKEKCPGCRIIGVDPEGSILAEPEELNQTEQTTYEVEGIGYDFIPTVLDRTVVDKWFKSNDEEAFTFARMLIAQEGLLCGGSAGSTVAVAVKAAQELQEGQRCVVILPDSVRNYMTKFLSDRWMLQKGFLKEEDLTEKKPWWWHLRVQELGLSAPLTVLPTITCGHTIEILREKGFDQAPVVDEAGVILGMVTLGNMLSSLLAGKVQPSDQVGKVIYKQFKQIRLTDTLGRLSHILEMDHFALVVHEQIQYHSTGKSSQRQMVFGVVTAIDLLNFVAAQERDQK
Experimental: Fig. 1 CH004 inhibits the activity of hCBS in the in vitro purified enzyme assays under different assay conditions. a A scheme for the cascade enzymatic reactions catalyzed by CBS or CSE. Cth, cystathionine. b, c Inhibitory effects of CH004 on the activity of hCBS-413 (b) or hCSE (c). The enzyme activities were monitored for various concentrations of CH004 under the standard conditions (50 mM Tris-HCl, pH 8.6; “Materials and Methods” section). The result is shown as percentages of the control (DMSO, 100%). The data are shown as means ± SDS (n = 3). d The dose-dependent inhibition of CH004 on the hCBS-413 activity was measured by the tandem-well-based assay under the standard conditions except using 50 mM Hepes buffer (pH 7.4) instead of 50 mM Tris-HCl (pH 8.6). Means ± SDs (n = 3). e The dose-dependent inhibition of CH004 on the CBS activity measured by methylene blue method. […] After 80 min, the assay was stopped by added 10 μL 10% ZnAC and the generated H2S was quantified by N,N-dimethyl-p-phenylenediamine to give an absorbance at 670 nm (for details, see Materials and Methods section; ref. [53]). […]
^3The IC50 were determined for hCBS-FL by Methyl Blue method (ref. 1).

[5] = 150 nM CBS, 4 mM Hcys, 4 mM Cys, Tris-HCl pH 8.6

T2 sequence (P35520 1-413 T146A): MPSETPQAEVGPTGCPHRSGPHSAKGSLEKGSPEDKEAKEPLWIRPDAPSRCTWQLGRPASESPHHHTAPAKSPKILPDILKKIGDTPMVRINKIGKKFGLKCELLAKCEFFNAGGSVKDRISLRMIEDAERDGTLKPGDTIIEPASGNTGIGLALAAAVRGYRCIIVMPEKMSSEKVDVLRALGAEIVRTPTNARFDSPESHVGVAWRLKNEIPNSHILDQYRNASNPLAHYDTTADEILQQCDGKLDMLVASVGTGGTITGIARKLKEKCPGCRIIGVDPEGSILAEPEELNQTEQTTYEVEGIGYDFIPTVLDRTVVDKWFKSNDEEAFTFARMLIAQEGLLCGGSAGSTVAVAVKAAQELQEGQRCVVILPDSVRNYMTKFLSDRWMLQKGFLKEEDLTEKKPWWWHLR
T1 sequence (P35520 1-413 S147A): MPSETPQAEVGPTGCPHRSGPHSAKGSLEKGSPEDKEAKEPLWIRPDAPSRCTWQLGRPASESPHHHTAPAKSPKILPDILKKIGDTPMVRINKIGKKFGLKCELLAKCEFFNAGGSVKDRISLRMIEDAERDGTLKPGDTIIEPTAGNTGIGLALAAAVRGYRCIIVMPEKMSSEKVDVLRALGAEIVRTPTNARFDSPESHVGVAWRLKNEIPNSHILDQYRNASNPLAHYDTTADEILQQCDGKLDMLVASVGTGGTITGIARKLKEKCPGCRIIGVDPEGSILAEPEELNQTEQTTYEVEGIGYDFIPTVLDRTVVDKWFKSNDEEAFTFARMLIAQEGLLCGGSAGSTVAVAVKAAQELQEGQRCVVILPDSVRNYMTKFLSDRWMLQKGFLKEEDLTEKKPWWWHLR
T3 sequence (P35520 1-413 Y223F): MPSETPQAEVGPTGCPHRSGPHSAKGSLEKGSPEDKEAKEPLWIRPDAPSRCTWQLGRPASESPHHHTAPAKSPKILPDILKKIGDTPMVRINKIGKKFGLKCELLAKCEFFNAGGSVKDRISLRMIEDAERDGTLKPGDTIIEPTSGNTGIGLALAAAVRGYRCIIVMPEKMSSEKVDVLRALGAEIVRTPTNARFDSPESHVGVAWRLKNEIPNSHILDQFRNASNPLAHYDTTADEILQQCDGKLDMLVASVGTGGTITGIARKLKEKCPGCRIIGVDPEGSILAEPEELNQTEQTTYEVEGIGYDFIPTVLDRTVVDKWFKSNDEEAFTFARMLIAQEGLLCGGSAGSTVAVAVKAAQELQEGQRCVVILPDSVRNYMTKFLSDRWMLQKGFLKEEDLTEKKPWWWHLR

Compound: Cn1nc(Cc2ccccc2)nc2c(=O)n(C)c(=O)nc1-2 [CH004, 3-benzyl-1,6-dimethylpyrimido[5,4-e][1,2,4]triazine-5,7(1H,6H)-dione]
- IC50 fold to WT, S147A [1]: 4.9
- IC50 [1, 5]: 5.9 ± 0.8 µM
- IC50 fold to WT, T146A [2]: 4.2
- IC50 ([2]; 2 µM CBS, 4 mM Hcys, 4 mM Cys, Tris-HCl pH 8.6): 5 ± 1.5 µM
- IC50 fold to WT, Y223F [3]: 3.5
- IC50 [3, 5]: 4.2 ± 1 µM
- IC50 [4]: 1.71 µM and 1.7 µM
